Data published in US20220259212A1, “INHIBITORS OF INDOLEAMINE 2,3-DIOXYGENASE AND/OR TRYPTOPHAN 2,3-DIOXYGENASE” (Idorsia Pharmaceuticals Ltd, priority 2019, published 2022).

How the values were obtained:
[1] = molecular target: T1, Recombinant human TDO comprising amino acids 19-407 (Homo sapiens, UniProt P48775); assay: TDO2 enzymatic assay (NFK quantified by LCMS); format: biochemical; details: 15 nM enzyme, 200 μM L-tryptophan, 30 min pre-incubation, pH7; mean if measured multiple times; read-out: hTDO activity (IC50 in nM)
T1 construct: human TDO comprising amino acids 19-407; hexahistidine (N); made in house; host or cells: E. coli
Experimental: 2) Testing Compounds for TDO Inhibitory Activity in a TDO2 Enzymatic Assay:
Recombinant human TDO comprising amino acids 19-407 with a N-terminal hexahistidine tag expressed in E. coli and purified to homogeneity is incubated at a final concentration of 15 nM in assay buffer consisting of 75 mM phosphate buffer at pH7 supplemented with 100 μM ascorbic acid, 50 U/ml Catalase, 0.01% BSA, and 0.01% Tween 20 (protocol modified from Seegers et al, JBS 2014). Example compounds are serially diluted in DMSO, further diluted in phosphate buffer, and added to the reaction mixture at final concentrations ranging from 10 μM to 0.5 nM. The final DMSO concentration is 0.6%. Following a pre-incubation of 30 minutes at RT, the reaction is started by the addition of L-tryptophan at a final concentration of 200 μM in assay buffer. After 30 minutes of incubation at RT, 3 μL of the reaction mixture are transferred to a 384 deep well plate containing 25 μL of deionized water. 100 μl of 200 nM L-Tryptophan-(indole-d5) in cold 100% methanol are added followed by a 10 minutes centrifugation at 3220×g at 4° C. An additional 75 μL of deionized water are then added followed by a 10 minutes centrifugation at 3220×g at 4° C. The product of the reaction N′-Formylkynurenine (NFK) is quantified by LCMS and normalized to the L-Tryptophan-(indole-d5) signal. Samples with 0.6% DMSO (0% effect) and a TDO/IDO inhibitor (100% effect) are used as control samples to set the parameters for the non-linear regression necessary for the determination of the half-maximal inhibitory concentration (IC50) for each compound. For each compound concentration the percentage of activity compared to 0% and 100% effect is calculated as average±STDEV (each concentration measured in duplicate). IC50 values and curves are generated with XLfit software (IDBS) using Dose-Response One Site model 203 (four parameter logistic curve model). The calculated IC50 values may fluctuate depending on the daily assay performance. Fluctuations of this kind are known to those skilled in the art. When compounds are measured multiple times, mean values are given.

[2] = molecular target: T2, Recombinant full-length human IDO1 (Homo sapiens, UniProt P14902); assay: IDO1 enzymatic assay (NFK quantified by LCMS); format: biochemical; details: 2 nM enzyme, 5 μM L-tryptophan, 30 min pre-incubation, pH6.5; mean if measured multiple times; read-out: hIDO activity (IC50 in nM)
T2 construct: Recombinant full-length human IDO1 with a N-terminal hexahistidine tag; hexahistidine (N); made in house; host or cells: E. coli
Experimental: 1) Testing Compounds for IDO Inhibitory Activity in an IDO1 Enzymatic Assay:
Recombinant full-length human IDO1 with a N-terminal hexahistidine tag expressed in E. coli and purified to homogeneity is incubated at a final concentration of 2 nM in assay buffer consisting of 37.5 mM phosphate buffer at pH6.5 supplemented with 10 mM ascorbic acid, 0.45 μM methylene blue, 50 U/ml catalase, 0.01% BSA, and 0.01% Tween 20 (protocol modified from Seegers et al, JBS 2014). Example compounds are serially diluted in DMSO, further diluted in phosphate buffer, and added to the enzyme at final concentrations ranging from 10 μM to 0.5 nM. The final DMSO concentration is 0.6%. Following a pre-incubation of 30 minutes at RT, the reaction is started by the addition of L-tryptophan at a final concentration of 5 μM in assay buffer. After 30 minutes of incubation at RT, 3 μL of the 20 μl reaction mixture are transferred to a 384 deep well plate containing 25 μL of deionized water. 100 μl of 200 nM L-Tryptophan-(indole-d5) in cold 100% methanol are added followed by a 10 minutes centrifugation at 3220×g at 4° C. An additional 75 μL of deionized water are then added followed by a 10 minutes centrifugation at 3220×g at 4° C. The product of the reaction N′-Formylkynurenine (NFK) is quantified by LCMS and normalized to the L-Tryptophan-(indole-d5) signal. Samples with 0.6% DMSO (0% effect) and a TDO/IDO inhibitor (100% effect) are used as control samples to set the parameters for the non-linear regression necessary for the determination of the half-maximal inhibitory concentration (IC50) for each compound. For each compound concentration the percentage of activity compared to 0% and 100% effect is calculated as average±STDEV (each concentration measured in duplicate). IC50 values and curves are generated with XLfit software (IDBS) using Dose-Response One Site model 203 (four parameter logistic curve model). The calculated IC50 values may fluctuate depending on the daily assay performance. Fluctuations of this kind are known to those skilled in the art. When compounds are measured multiple times, mean values are given.

IDO1 in SKOV3 cells = molecular target: T3, IDO1 in SKOV3 cells (Homo sapiens, UniProt P14902); assay: Cell-based IDO inhibitory activity in IFNγ-stimulated SKOV3 cells (NFK + kynurenine by LCMS); details: IFNγ 50 ng/ml, 200 uM L-tryptophan, 24 hours
T3 construct: SKOV3 cells (NCI, No. 0503405) which upregulate IDO1 after stimulation with IFNγ; host or cells: SKOV3 cells stimulated with IFNγ
Excerpt: 3) Testing Compounds for IDO/TDO Inhibitory Activity and Toxicity in Cell-Based Assays
SW48 cells (ATCC, CCL-231) are used to measure compounds for TDO inhibitory activity and are routinely maintained in DMEM high glucose/GlutaMAX™/pyruvate 90% (v/v), FCS 10% (v/v), Penicilin/streptomycin 1% (v/v). SKOV3 cells (NCI, No. 0503405) which upregulate IDO1 after stimulation with IFNγ are used to measure compounds for IDO inhibitory activity. SKOV3 cells are routinely maintained in RPMI 90% (v/v), FCS 10% (v/v), Penicilin/streptomycin 1% (v/v). SW48 or SKOV3 cells are seeded in 384 well plates at a density of 8000 cells in 45 ul per well or 4000 cells in 45 ul per well, respectively. Plates are incubated at 37° C./5% CO2 for 24 hours. On the next day, 10 ul compound in serial dilutions (tested concentration range 10 uM-40 nM) and 200 uM L-tryptophan are added (SKV03 receive in addition IFNγ at a final concentration of 50 ng/ml). After 24 hours of incubation at 37° C./5% CO2, 3 ul of the supernatant per well is transferred to 25 ul H2O per well in a 384 deep well plate and 25 ul of the supernatant per well is transferred to waste. The SKOV3 and SW48 cell plates with 25 ul supernatant per well remaining are used to measure viability (see below). The 384 deep well plate containing 3 ul supernatant and 25 ul H2O per well are further processed for LCMS: After the addition of 100 ul L-tryptophan-(indole-d5) (Sigma 615862) at 200 nM in methanol, the 384 deep well plates are centrifuged for 10 minutes at 3220×g at 4° C., 75 ul H2O is added per well and plates centrifuged again for 10 minutes at 3220×g at 4° C. N-formylkynurenine and kynurenine are quantified by LCMS, normalized to the internal standard L-tryptophan-(indole-d5) and the sum is calculated. Samples with 0.2% DMSO (0% effect) and a TDO/IDO inhibitor (100% effect) are used as control samples to set the parameters for the non-linear regression necessary for the determination of the IC50 for each compound. For each compound concentration the percentage of activity compared to 0% and 100% effect is calculated as average±STDEV (each concentration measured in duplicate). IC50 values and curves are generated with XLfit software (IDBS) using Dose-Response One Site model 203. The calculated IC50 values may fluctuate depending on the daily cellular assay performance. Fluctuations of this kind are known to those skilled in the art. When compounds are measured multiple times, mean values are given.

T2 sequence (P14902 whole entry): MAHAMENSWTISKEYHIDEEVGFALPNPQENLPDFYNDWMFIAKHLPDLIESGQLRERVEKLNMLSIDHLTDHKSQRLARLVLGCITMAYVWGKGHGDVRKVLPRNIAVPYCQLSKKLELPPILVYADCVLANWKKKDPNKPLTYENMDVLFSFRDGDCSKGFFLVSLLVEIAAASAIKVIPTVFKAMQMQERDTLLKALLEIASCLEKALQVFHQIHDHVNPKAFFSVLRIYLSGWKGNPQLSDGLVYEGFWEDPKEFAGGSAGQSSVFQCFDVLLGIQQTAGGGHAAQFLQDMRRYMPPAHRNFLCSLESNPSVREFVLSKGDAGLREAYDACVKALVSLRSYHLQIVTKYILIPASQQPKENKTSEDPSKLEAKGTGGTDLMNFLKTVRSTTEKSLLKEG
T3 sequence (P14902 whole entry): as above
T1 sequence (P48775 19-406 limits assumed): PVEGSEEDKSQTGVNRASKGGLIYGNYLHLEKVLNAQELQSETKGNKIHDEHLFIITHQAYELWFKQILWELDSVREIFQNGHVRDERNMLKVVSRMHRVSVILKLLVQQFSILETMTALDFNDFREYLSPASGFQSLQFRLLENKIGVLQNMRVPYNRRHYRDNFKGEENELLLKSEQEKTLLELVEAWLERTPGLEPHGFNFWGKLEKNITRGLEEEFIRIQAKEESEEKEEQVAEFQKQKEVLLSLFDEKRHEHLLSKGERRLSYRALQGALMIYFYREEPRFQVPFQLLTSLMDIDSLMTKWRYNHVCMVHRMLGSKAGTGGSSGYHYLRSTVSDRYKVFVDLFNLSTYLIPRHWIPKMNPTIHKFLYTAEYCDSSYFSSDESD

| SMILES | IC50 [1] [nM] | IC50 [2] [nM] | IC50 (IDO1 in SKOV3 cells) [nM] |
| --- | --- | --- | --- |
| COc1ccc(-n2cc(C(O)c3c(C4CC4)ncc4cncn34)nn2)cc1 (racemic) [Example 17, rac-(6-Cyclopropyl-imidazo[1,5-a]pyrazin-5-yl)-[1-(4-methoxy-phenyl)-1H-[1,2,3]triazol-4-yl]-methanol] | > 10200 | 20.4 | 172 |
| COCc1ccc(-n2cc([C@H](O)c3c(C4CC4)ncc4cncn34)nn2)cc1 [Example 24, (R)-(6-Cyclopropyl-imidazo[1,5-a]pyrazin-5-yl)-[1-(4-methoxymethyl-phenyl)-1H-[1,2,3]triazol-4-yl]-methanol] | > 10200 | 8.36 | 399 |
| COc1ccc(-n2nnc([C@H](O)c3c(Cl)ccc4cncn34)c2C)cc1 [Example 20a, (R)-(6-Chloro-imidazo[1,5-a]pyridin-5-yl)-[1-(4-methoxy-phenyl)-5-methyl-1H-[1,2,3]triazol-4-yl]-methanol] | 2190 | 1.84 | 10.7 |
| COc1ccc(-n2cc(C(O)c3c(C4CC4)ccc4cncn34)nn2)cc1Cl (racemic) [Example 8, rac-[1-(3-Chloro-4-methoxy-phenyl)-1H-[1,2,3]triazol-4-yl]-(6-cyclopropyl-imidazo[1,5-a]pyridin-5-yl)-methanol] | > 10200 | 7.41 | 8.8 |
| Cc1c(C(O)c2c(Cl)ccc3cncn23)nnn1-c1ccc(OCCC(C)(C)O)c(F)c1 (racemic) [Example 50, rac-4-(4-{4-[(6-Chloro-imidazo[1,5-a]pyridin-5-yl)-hydroxy-methyl]-5-methyl-[1,2,3]triazol-1-yl}-2-fluoro-phenoxy)-2-methyl-butan-2-ol] | 8200 |  | 5.41 |
| Cc1c(C(O)c2c(C3CC3)ncc3cncn23)nnn1-c1ccc(F)cc1F (racemic) [Example 54, rac-(6-Cyclopropyl-imidazo[1,5-a]pyrazin-5-yl)-[1-(2,4-difluoro-phenyl)-5-methyl-1H-[1,2,3]triazol-4-yl]-methanol] | > 10200 |  | 364 |
| COc1ccc(-n2nnc(C(O)c3c(Cl)ccc4cncn34)c2Cl)cc1 (racemic) [Example 51, rac-(6-Chloro-imidazo[1,5-a]pyridin-5-yl)-[5-chloro-1-(4-methoxy-phenyl)-1H-[1,2,3]triazol-4-yl]-methanol] | 7040 |  | 145 |
| CC(C)(O)COc1cc(F)c(-n2cc([C@H](O)c3c(C4CC4)ncc4cncn34)nn2)cc1F [Example 56, 1-(4-{4-[(R)-(6-Cyclopropyl-imidazo[1,5-a]pyrazin-5-yl)-hydroxy-methyl]-[1,2,3]triazol-1-yl}-2,5-difluoro-phenoxy)-2-methyl-propan-2-ol] | > 10200 |  | 29.3 |
| Cc1c(C(O)c2c(C3CC3)ncc3cncn23)nnn1-c1ccccc1F (racemic) [Example 57, rac-(6-Cyclopropyl-imidazo[1,5-a]pyrazin-5-yl)-(1-(2-fluoro-phenyl)-5-methyl-1H-[1,2,3]triazol-4-yl-methanol] | > 10200 |  | 333 |
| COc1ccc(-n2cc([C@H](O)c3c(C4CC4)ncc4cncn34)nn2)cc1Br [Example 23, (R)-[1-(3-Bromo-4-methoxy-phenyl)-1H-[1,2,3]triazol-4-yl]-(6-cyclopropyl-imidazo[1,5-a]pyrazin-5-yl)-methanol] |  | 9.61 | 51.9 |
| Cc1c(C(O)c2c(Cl)ccc3cncn23)nnn1-c1ccc(OCCC(C)(C)O)c(Cl)c1 (racemic) [Example 49, rac-4-(2-Chloro-4-{4-[(6-chloro-imidazo[1,5-a]pyridin-5-yl)-hydroxy-methyl]-5-methyl-[1,2,3]triazol-1-yl}-phenoxy)-2-methyl-butan-2-ol] | 8360 |  | 10.2 |
| COc1cc(F)c(-n2nnc(C(O)c3c(C4CC4)ncc4cncn34)c2C)cc1F (racemic) [Example 55, rac-(6-Cyclopropyl-imidazo[1,5-a]pyrazin-5-yl)-[1-(2,5-difluoro-4-methoxy-phenyl)-5-methyl-1H-[1,2,3]triazol-4-yl]-methanol] | > 10200 |  | 35 |
| O[C@@H](c1cn(-c2cc(F)c(OCC3COC3)cc2F)nn1)c1c(C2CC2)ncc2cncn12 [Example 53, (R)-(6-Cyclopropyl-imidazo[1,5-a]pyrazin-5-yl)-{1-[2,5-difluoro-4-(oxetan-3-ylmethoxy)-phenyl]-1H-[1,2,3]triazol-4-yl}-methanol] | > 10200 |  | 27.4 |
| O[C@@H](c1cn(-c2cc(F)c(OCC3(F)COC3)cc2F)nn1)c1c(C2CC2)ncc2cncn12 [Example 52, (R)-(6-Cyclopropyl-imidazo[1,5-a]pyrazin-5-yl)-{1-[2,5-difluoro-4-(3-fluoro-oxetan-3-ylmethoxy)-phenyl]-1H-[1,2,3]triazol-4-yl}-methanol] | > 10200 |  | 18.1 |
